The nature of test [1]: conditioned fear test, Example 3 (comparison with paroxetine). Particulars: for Freezing index Day 1 / Freezing index Day 3 / Freezing index Day 4: n = 10; for Freezing index Day 1: witnesses 53.3 ± 5.7; for Freezing index Day 3: witnesses 38.1 ± 8.7; for Freezing index Day 4: Day 4, treatment stopped after day 3, witnesses 56.2 ± 9.8. In kind it is in vivo, rodents. As for the experimental part: (§1) The conditioned fear test in rodents is recognized as a relevant preclinical model for the study of post-traumatic stress disorders.
(§2) During this test, animals are placed for a 4.5-minute conditioning session in a square box with a stainless steel mesh floor connected to a shock generator.
(§3) A conditioned stimulus (CS) consisting of a sound (80 dB, 2800 Hz, 30 seconds) is presented twice (at 1.5 min and then at 3.5 min).
(§4) An unconditioned stimulus consisting of an electric shock to the paws is delivered at the end of each CS (2 seconds, 0.6 mA).
(§5) The animals were then subjected to memory test sessions of the stressful event on different days after the session of packaging. The sessions of test of memorization (duration of 6 min) comprise a first period of 3 minutes without none CS presentation (period CS−) followed by a second 3 minute period during which the CS is presented (period CS+).
(§6) The sound stimulus alone triggers conditioned fear behavior. In rodents, this behavior is manifested by a prostrate attitude, an immobility behavior (i.e. «freezing») that is distinguished from the animal's exploratory behavior when placed in an enclosure for a short period.
(§7) The analyzed data are the time of immobility during the period CS− and during the period CS+. The freezing index is defined as the difference in immobility time between the period with the sound stimulus and the period without the sound. Therefore, the higher this index, the greater the post-traumatic stress state.
(§8) The «sham» group received no shock. The treatments were administered immediately after the conditioning session, and then 30 minutes before each conditioned fear session (no shock, but with the conditioned stimulus).
(§9) This test measures the effect of stress and its environment and its memorization (i.e. extinction).
The protocol is identical to that of Example 1 above. In this example, the conditioned fear sessions and the freezing measurement are carried out on days 1, 3 and 4 after the conditioning session. The treatment is stopped after day 3, so that during the 4th observation session, no treatment is administered.

For test [2] the following is noted: Azevedo et al., Neuropharmacology 164 (2020) 107912; cited from earlier work.
The nature of test [3]: conditioned fear test, Example 1 (freezing index 3 days after conditioning). In kind it is in vivo, rodents. Particulars: for p (freezing index, versus control group) / Freezing index / Freezing index, % vs witness: 3 days after conditioning, n = 10; for Freezing index: Mean ± SEM, witnesses 62.12 ± 9.93; for Freezing index, % vs witness: witnesses 100.00. The method, then:
as §1, §2, §3, §4, §5, §6, §7, §8, §9

Structures can show the parent of a compound that is named as a salt.

Consider `Fc1ccc([C@@H]2CCNC[C@H]2COc2ccc3c(c2)OCO3)cc1` [Paroxetine], for which, in test [1] (4 mg/kg), the “Freezing index Day 1” value was 64.5 s, the “Freezing index Day 3” value worked out at 44.3 s and the “Freezing index Day 4” value is 38.9 s. For the same compound, in test [1] (8 mg/kg), the “Freezing index Day 1” value was 51.3 s, the “Freezing index Day 3” value is 33.1 s and the “Freezing index Day 4” value was 50.3 s. Besides, the “effect on the memory component and impact of the stressful event / anxious reaction, in words” value in test [1] (Example 3 conclusion) was “no significant effect”.

For the compound `COc1ccccc1N1CCN(CCn2cnc3ccccc3c2=O)CC1` [ACH-000029], the “efficacy versus prazosin alone” value in test [2] was “more effective than prazosin alone”.

With `CN1CCC(=C2c3ccccc3C=Cc3ccccc32)CC1` [Cyproheptadine, 4-(5-H-dibenzo[a,d]cyclohepten-5-ylidene)-1-methylpiperidine hydrochloride], in test [3] (0.5 mg/kg), the “p (freezing index, versus control group)” value is given as “ns”; the Freezing index was determined as 38.68 ± 5.84 s; the “Freezing index, % vs witness” value is 62.28%.

Consider `COc1cc2nc(N3CCN(C(=O)c4ccco4)CC3)nc(N)c2cc1OC` [Prazosin, 2-[4-(2-furoyl)piperazin-1-yl]-6,7-dimethoxyquinazolin-4-amine], for which, in test [3] (0.5 mg/kg), the “p (freezing index, versus control group)” value is on record as “ns”; the Freezing index amounted to 41.97 ± 5.82 s; the “Freezing index, % vs witness” value was found to be 67.57%. In test [3] (1 mg/kg), the “p (freezing index, versus control group)” value is on record as “ns”; the Freezing index was determined as 35.29 ± 12.22 s; the “Freezing index, % vs witness” value was 56.80%. The “effect on post-traumatic stress syndrome, in words” value in test [3] (Example 1 conclusion, conditioned fear test) is reported as “does not allow the treatment of post-traumatic stress syndrome”.

The values above are taken from patent publication US20260294883A1, “PHARMACEUTICAL COMPOSITION FOR THE TREATMENT OF POST-TRAUMATIC STRESS SYNDROME” (KINNOV THERAPEUTICS, priority 2022, published 2026).
